Where two headings read alike, the source gives them in different places.

Assay [1] concerns CD69 expression on B cells in human whole blood. Put plainly: Whole blood assay of BCR-stimulated CD69 expression on B cells. It counts as cell-based.
The target of a further assay is Jak2 tyrosine kinase (Homo sapiens (Human), UniProt O60674). Put plainly: Jak2 tyrosine kinase assay. It counts as biochemical.
The next assay addresses human recombinant Btk (Homo sapiens (Human), UniProt Q06187). Put plainly: Human Recombinant Btk enzyme assay. Format: biochemical. The conditions noted are these: read-out: Btk IC50 value.
Setting [2] is: BCR-stimulated, read-out: CD69 IC50 values.
[3] abbreviates: Homo sapiens, B-cell, BCR-stimulated, read-out: CD69 IC50 values.

Chain of Jak2 tyrosine kinase (O60674 whole entry): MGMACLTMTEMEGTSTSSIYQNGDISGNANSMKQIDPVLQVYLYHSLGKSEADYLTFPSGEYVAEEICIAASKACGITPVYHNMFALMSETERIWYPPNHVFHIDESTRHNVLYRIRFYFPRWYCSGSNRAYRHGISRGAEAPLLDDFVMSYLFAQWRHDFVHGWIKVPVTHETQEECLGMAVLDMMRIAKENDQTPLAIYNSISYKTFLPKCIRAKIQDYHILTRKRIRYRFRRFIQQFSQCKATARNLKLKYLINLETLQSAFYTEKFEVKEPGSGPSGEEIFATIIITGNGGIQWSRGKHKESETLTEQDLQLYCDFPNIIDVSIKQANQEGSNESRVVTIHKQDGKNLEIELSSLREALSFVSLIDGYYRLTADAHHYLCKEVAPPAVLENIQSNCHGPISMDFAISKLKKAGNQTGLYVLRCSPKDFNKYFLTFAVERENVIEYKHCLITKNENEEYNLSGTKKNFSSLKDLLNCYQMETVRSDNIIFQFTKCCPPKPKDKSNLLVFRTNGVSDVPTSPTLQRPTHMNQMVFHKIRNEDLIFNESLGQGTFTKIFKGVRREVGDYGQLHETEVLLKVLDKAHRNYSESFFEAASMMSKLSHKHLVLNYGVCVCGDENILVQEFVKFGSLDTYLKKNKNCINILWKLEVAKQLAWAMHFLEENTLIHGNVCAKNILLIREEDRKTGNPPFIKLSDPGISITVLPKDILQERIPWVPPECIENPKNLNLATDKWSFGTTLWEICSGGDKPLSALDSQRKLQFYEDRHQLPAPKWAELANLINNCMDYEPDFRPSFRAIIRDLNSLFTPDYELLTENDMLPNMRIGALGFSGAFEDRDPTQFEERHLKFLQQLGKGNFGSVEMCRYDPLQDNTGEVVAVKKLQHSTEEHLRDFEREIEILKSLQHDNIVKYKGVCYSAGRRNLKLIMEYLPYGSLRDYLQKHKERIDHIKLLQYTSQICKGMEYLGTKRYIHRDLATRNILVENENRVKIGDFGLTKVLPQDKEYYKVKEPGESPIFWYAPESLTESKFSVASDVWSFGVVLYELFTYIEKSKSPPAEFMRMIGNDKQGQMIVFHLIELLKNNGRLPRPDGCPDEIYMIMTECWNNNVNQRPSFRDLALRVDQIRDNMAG
Chain of human recombinant Btk (Q06187 whole entry): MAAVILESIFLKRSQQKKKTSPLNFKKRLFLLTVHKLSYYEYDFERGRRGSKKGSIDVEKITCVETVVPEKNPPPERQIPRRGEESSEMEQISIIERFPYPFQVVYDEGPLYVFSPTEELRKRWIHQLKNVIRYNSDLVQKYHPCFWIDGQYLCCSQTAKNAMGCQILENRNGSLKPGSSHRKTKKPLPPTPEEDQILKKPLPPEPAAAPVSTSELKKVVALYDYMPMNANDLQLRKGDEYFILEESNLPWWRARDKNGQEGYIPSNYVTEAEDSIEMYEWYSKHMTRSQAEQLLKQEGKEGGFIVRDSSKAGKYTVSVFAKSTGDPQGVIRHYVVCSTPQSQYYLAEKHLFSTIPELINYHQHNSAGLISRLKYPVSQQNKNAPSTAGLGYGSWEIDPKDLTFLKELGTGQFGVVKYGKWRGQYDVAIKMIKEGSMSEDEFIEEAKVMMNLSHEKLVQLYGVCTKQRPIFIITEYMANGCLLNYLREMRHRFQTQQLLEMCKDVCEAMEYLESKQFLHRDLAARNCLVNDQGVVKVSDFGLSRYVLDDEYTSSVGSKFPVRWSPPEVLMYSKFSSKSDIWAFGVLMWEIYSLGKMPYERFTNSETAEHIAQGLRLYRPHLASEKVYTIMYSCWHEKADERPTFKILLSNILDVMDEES

As a reminder, the IC50 is the midpoint of a concentration-inhibition curve. For `Cc1c(-c2c(Cl)cc(C(N)=O)c3[nH]c4cc(C(C)(C)O)ccc4c23)cccc1-n1c(=O)c2cccc(F)c2n(C)c1=O` (atropisomer, axis not shown) [Example 11, 3-Chloro-4-(R)-(3-(S)-(8-fluoro-1-methyl(d3)-2,4-dioxo-1,2-dihydroquinazolin-3(4H)-yl)-2-methylphenyl)-7-(2-hydroxypropan-2-yl)-9H-carbazole-1-carboxamide], the half-maximal inhibitory concentration (IC50) in assay [1] (setting [2]) came to 65 nM; against Jak2 tyrosine kinase, 910 nM.
Regarding `Cc1c(-c2c(F)cc(C(N)=O)c3[nH]c4cc(C(C)(C)O)ccc4c23)cccc1-n1c(=O)c2cccc(F)c2n(C)c1=O` (atropisomer, axis not shown) [Example 18, 3-Fluoro-4-(3-(S)-(8-fluoro-1-methyl-2,4-dioxo-1,2-dihydroquinazolin-3(4H)-yl)-2-methylphenyl)-7-(2-hydroxypropan-2-yl)-9H-carbazole-1-carboxamide], in assay [1] (setting [2]), the IC50 was 56 nM.
As to `Cc1c(-c2c(Cl)cc(C(N)=O)c3[nH]c4c(c23)CC[C@H](C(C)(C)O)C4)cccc1-n1c(=O)c2cccc(F)c2n(C)c1=O` (atropisomer, axis not shown) [Example 26, 6-Chloro-5-(R)-(3-(S)-(8-fluoro-1-methyl-2,4-dioxo-1,2-dihydroquinazolin-3(4H)-yl)-2-methylphenyl)-2-(S)-(2-hydroxypropan-2-yl)-2,3,4,9-tetrahydro-1H-carbazole-8-carboxamide], the IC50 in assay [1] (setting [2]) was found to be 160 nM; at Jak2 tyrosine kinase, 7500 nM.
Regarding `Cc1c(-c2c(Cl)cc(C(N)=O)c3[nH]c4cc(C(C)(C)O)ccc4c23)cccc1-n1c(=O)c2cccc(F)c2n(C)c1=O` (single isomer, unassigned) [Example 1], in assay [1] (setting [2]), the half-inhibitory concentration (IC50) was 190 nM.
On the same count and under the same terms, the result for `Cc1c(-c2c(Cl)cc(C(N)=O)c3[nH]c4cc(C(C)(C)O)ccc4c23)cccc1-n1c(=O)c2cccc(F)c2n(C)c1=O` (single isomer, unassigned) [Example 2] reads 90 nM.
With `[2H]C([2H])([2H])n1c(=O)n(-c2cccc(-c3c(Cl)cc(C(N)=O)c4[nH]c5cc(C(C)(C)O)ccc5c34)c2C)c(=O)c2cccc(F)c21` (single isomer, unassigned) [Example 12], the half-maximal inhibitory concentration (IC50) in assay [1] (setting [3]) was determined as 190 nM; on Jak2 tyrosine kinase it was 1900 nM.
Take `Cc1c(-c2c(Cl)cc(C(N)=O)c3[nH]c4c(c23)CC[C@H](C(C)(C)O)C4)cccc1-n1c(=O)[nH]c2c(F)cccc2c1=O` (single isomer, unassigned) [Example 55]: the IC50 in assay [1] (setting [2]) was 44 nM; at Jak2 tyrosine kinase it was 9000 nM.
In the same order, the values of `Cc1c(-c2c(Cl)cc(C(N)=O)c3[nH]c4c(c23)CC[C@H](C(C)(C)O)C4)cccc1-n1c(=O)[nH]c2c(F)cccc2c1=O` (single isomer, unassigned) [Example 56] are 140 nM and > 2000 nM.
As to `Cc1c(-c2c(F)cc(C(N)=O)c3[nH]c4c(c23)CC[C@H](C(C)(C)O)C4)cccc1-n1c(=O)[nH]c2c(F)cccc2c1=O` (single isomer, unassigned) [Example 59], the IC50 on human recombinant Btk is 0.9 nM.
Turning to `Cc1c(-c2c(F)cc(C(N)=O)c3[nH]c4c(c23)CC[C@H](C(C)(C)O)C4)cccc1-n1c(=O)cc2c(Cl)cccn2c1=O` (single isomer, unassigned) [Example 64], on Jak2 tyrosine kinase, the IC50 was > 2000 nM.
On to `Cc1c(-c2c(F)cc(C(N)=O)c3[nH]c4c(c23)CC[C@H](C(C)(C)O)C4)cccc1-n1c(=O)cc2c(Cl)cccn2c1=O` (single isomer, unassigned) [Example 65], for which the half-inhibitory concentration (IC50) in assay [1] (setting [2]) is 110 nM; against Jak2 tyrosine kinase, > 2000 nM.
Consider `Cc1c(-c2ccc(C(N)=O)c3[nH]c4cc(C(C)(C)O)ccc4c23)cccc1-n1cnc2ccccc2c1=O` [Comparative Example 75, 7-(2-Hydroxypropan-2-yl)-4-(2-methyl-3-(4-oxoquinazolin-3(4H)-yl)phenyl)-9H-carbazole-1-carboxamide, reference compound], for which, in assay [1] (Homo sapiens, B-cell, 18 h, anti-IgM + IL-4 stimulation, 18 h, read-out: CD69 IC50), the concentration for half-maximal inhibition (IC50) is 650 nM.
Take `Cc1c(-c2c(F)cc(C(N)=O)c3[nH]c4cc(C(C)(C)O)ccc4c23)cccc1-n1c(=O)c2cccc(F)c2n(C)c1=O` [Example 17, 3-Fluoro-4-(3-(8-fluoro-1-methyl-2,4-dioxo-1,2-dihydroquinazolin-3(4H)-yl)-2-methylphenyl)-7-(2-hydroxypropan-2-yl)-9H-carbazole-1-carboxamide]: in assay [1] (setting [2]), the IC50 was found to be 120 nM.
The same measure, in the same setting: under `Cc1c(-c2c(F)cc(C(N)=O)c3[nH]c4cc(C(C)(C)O)ccc4c23)cccc1-n1c(=O)[nH]c2c(F)cccc2c1=O` [Example 20, 3-Fluoro-4-(3-(8-fluoro-2,4-dioxo-1,2-dihydroquinazolin-3(4H)-yl)-2-methylphenyl)-7-(2-hydroxypropan-2-yl)-9H-carbazole-1-carboxamide] stands 16 nM; under `Cc1c(-c2c(F)cc(C(N)=O)c3[nH]c4cc(C(C)(C)O)ccc4c23)cccc1-n1c(=O)[nH]c2c(F)cccc2c1=O` [Example 21, 3-Fluoro-4-(R)-(3-(R)-(8-fluoro-2,4-dioxo-1,2-dihydroquinazolin-3(4H)-yl)-2-methylphenyl)-7-(2-hydroxypropan-2-yl)-9H-carbazole-1-carboxamide], 17 nM; under `Cc1c(-c2c(F)cc(C(N)=O)c3[nH]c4cc(C(C)(C)O)ccc4c23)cccc1-n1c(=O)[nH]c2c(F)cccc2c1=O` [Example 22, 3-Fluoro-4-(R)-(3-(S)-(8-fluoro-2,4-dioxo-1,2-dihydroquinazolin-3(4H)-yl)-2-methylphenyl)-7-(2-hydroxypropan-2-yl)-9H-carbazole-1-carboxamide], 120 nM.
On the same count and under the same terms, the result for `Cc1c(-c2c(Cl)cc(C(N)=O)c3[nH]c4cc(C(C)(C)O)ccc4c23)cccc1-n1c(=O)ccn(-c2ccc(F)cc2)c1=O` [Example 23, 3-Chloro-4-(3-(3-(4-fluorophenyl)-2,6-dioxo-2,3-dihydropyrimidin-1(6H)-yl)-2-methylphenyl)-7-(2-hydroxypropan-2-yl)-9H-carbazole-1-carboxamide] reads 98 nM; that for `Cc1c(-c2c(Cl)cc(C(N)=O)c3[nH]c4cc(C(C)(C)O)ccc4c23)cccc1-n1c(=O)ccn(-c2ccc(F)cc2)c1=O` [Example 24, 3-Chloro-4-(R)-(3-(3-(4-fluorophenyl)-2,6-dioxo-2,3-dihydropyrimidin-1(6H)-yl)-2-methylphenyl)-7-(2-hydroxypropan-2-yl)-9H-carbazole-1-carboxamide], 21 nM.
As to `Cc1c(-c2c(Cl)cc(C(N)=O)c3[nH]c4c(c23)CC[C@H](C(C)(C)O)C4)cccc1-n1c(=O)c2cccc(F)c2n(C)c1=O` [Example 25, 6-Chloro-5-(3-(8-fluoro-1-methyl-2,4-dioxo-1,2-dihydroquinazolin-3(4H)-yl)-2-methylphenyl)-2-(S)-(2-hydroxypropan-2-yl)-2,3,4,9-tetrahydro-1H-carbazole-8-carboxamide], the IC50 at Jak2 tyrosine kinase is > 2000 nM.
As to `Cc1c(-c2c(Cl)cc(C(N)=O)c3[nH]c4cc(C(C)(C)O)ccc4c23)cccc1-n1c(=O)cc2c(Cl)cccn2c1=O` [Example 32, 3-Chloro-4-(R)-(3-(R)-(5-chloro-1,3-dioxo-1H-pyrido[1,2-c]pyrimidin-2(3H)-yl)-2-methylphenyl)-7-(2-hydroxypropan-2-yl)-9H-carbazole-1-carboxamide], the IC50 in assay [1] (setting [2]) was 160 nM.
With `Cc1c(-c2c(Cl)cc(C(N)=O)c3[nH]c4cc(C(C)(C)O)ccc4c23)cccc1-n1c(=O)cc2c(Cl)cccn2c1=O` [Example 33, 3-Chloro-4-(R)-(3-(S)-(5-chloro-1,3-dioxo-1H-pyrido[1,2-c]pyrimidin-2(3H)-yl)-2-methylphenyl)-7-(2-hydroxypropan-2-yl)-9H-carbazole-1-carboxamide], the IC50 in assay [1] (setting [2]) was 24 nM.
The same measure, in the same setting: under `Cn1c(=O)n(-c2cccc(-c3c(Cl)cc(C(N)=O)c4[nH]c5cc(C(C)(C)O)ccc5c34)c2Cl)c(=O)c2ccccc21` [Example 42, 3-Chloro-4-(2-chloro-3-(1-methyl-2,4-dioxo-1,2-dihydroquinazolin-3(4H)-yl)phenyl)-7-(2-hydroxypropan-2-yl)-9H-carbazole-1-carboxamide] stands 210 nM; under `Cn1c(=O)n(-c2cccc(-c3c(Cl)cc(C(N)=O)c4[nH]c5cc(C(C)(C)O)ccc5c34)c2Cl)c(=O)c2ccccc21` [Example 43, 3-Chloro-4-(R)-(2-chloro-3-(1-methyl-2,4-dioxo-1,2-dihydroquinazolin-3(4H)-yl)phenyl)-7-(2-hydroxypropan-2-yl)-9H-carbazole-1-carboxamide], 71 nM.
Take `Cn1c(=O)n(-c2cccc(-c3c(Cl)cc(C(N)=O)c4[nH]c5cc(C(C)(C)O)ccc5c34)c2Cl)c(=O)c2cccc(F)c21` [Example 44, 3-Chloro-4-(2-chloro-3-(8-fluoro-1-methyl-2,4-dioxo-1,2-dihydroquinazolin-3(4H)-yl)phenyl)-7-(2-hydroxypropan-2-yl)-9H-carbazole-1-carboxamide]: the half-maximal inhibitory concentration (IC50) in assay [1] (setting [2]) came to 160 nM.
As to `Cn1c(=O)n(-c2cccc(-c3c(Cl)cc(C(N)=O)c4[nH]c5cc(C(C)(C)O)ccc5c34)c2Cl)c(=O)c2cccc(F)c21` [Example 45, 3-Chloro-4-(R)-(2-chloro-3-(8-fluoro-1-methyl-2,4-dioxo-1,2-dihydroquinazolin-3(4H)-yl)phenyl)-7-(2-hydroxypropan-2-yl)-9H-carbazole-1-carboxamide], the IC50 in assay [1] (setting [2]) worked out at 68 nM.
On the same count and under the same terms, the result for `Cc1c(-c2c(F)cc(C(N)=O)c3[nH]c4cc(C(C)(C)O)ccc4c23)cccc1-n1c(=O)[nH]c2c(F)cc(F)cc2c1=O` [Example 50] reads 120 nM.
For `[2H]C([2H])([2H])n1c(=O)n(-c2cccc(-c3c(F)cc(C(N)=O)c4[nH]c5cc(C(C)(C)O)ccc5c34)c2C)c(=O)c2cccc(F)c21` [Example 52], the 50% inhibitory concentration (IC50) at Jak2 tyrosine kinase is 1100 nM.
`Cc1c(-c2c(F)cc(C(N)=O)c3[nH]c4cc(C(C)(C)O)ccc4c23)cccc1-n1c(=O)[nH]c2c(Cl)cccc2c1=O` [Example 53]: the IC50 in assay [1] (setting [3]) was found to be 110 nM.
As for `Cn1c(=O)n(-c2cccc(-c3c(F)cc(C(N)=O)c4[nH]c5cc(C(C)(C)O)ccc5c34)c2Cl)c(=O)c2cccc(F)c21` [Example 61], the IC50 in assay [1] (setting [2]) turned out to be 93 nM.
